# Test results published in patent publication US20100160326A1, “PEST CONTROL AGENT CONTAINING NOVEL PYRIDYL-METHANAMINE DERIVATIVE OR SALT THEREOF” (ISHIHARA SANGYO KAISHA, LTD., priority 2006, published 2010).
# Where two headings read alike, the source gives them in different places.
# How the values were obtained:
# Format in all cases: in vivo
# [1] = tested on: Green Peach Aphid (Myzus persicae); test: Test on controlling effects against green peach aphid (leaf dip); settings: foliar, 120 h
# Description: Test on Controlling Effects Against Green Peach Aphid (Myzus persicae)
# Mortality (%)=(1−(number of survived insects/number of treated insects))×100
# [2] = tested on: Common Cutworm (Spodoptera litura); test: Test on controlling effects against common cutworm (cabbage leaf disk dip); settings: foliar
# Description: Test on Controlling Effects Against Common Cutworm (Spodoptera litura)
# Mortality (%)=(Number of dead larvae/number of released larvae)×100
# [3] = tested on: Two-Spotted Spider Mite (Tetranychus urticae); test: Test on adults of two-spotted spider mite (kidney bean leaf dip); settings: foliar, adults dipped together with kidney bean leaf, second or third day after the treatment, 25° C.
# Description: Test on Adults of Two-Spotted Spider Mite (Tetranychus urticae)
# Mortality of adults (%)=(Number of dead two-spotted spider mites/Number of treated two-spotted spider mites)×100
# [4] = 800 ppm, Japanese radish leaf dipped about 10 seconds, first instar nymphs, counted 5 days after the treatment, 25° C., read-out: mortality
# [5] = 800 ppm, cabbage leaf disk dipped about 10 seconds, second-third instar larvae, fifth day after the release, 25° C., read-out: mortality
SMILES,"mortality at 800 ppm [1, 4] [%]","mortality at 800 ppm [2, 5] [%]",mortality at 800 ppm [3] [%],mortality at 800 ppm ([1]; in Raphanus sativus) [%],mortality at 800 ppm [2] [%]
"FC(F)(F)c1cc(NCc2ccccn2)nc(Cl)c1Cl [Compound No. 118, N-(2-PYRIDYLMETHYL)-5,6-DICHLORO-4-(TRIFLUOROMETHYL)-2-PYRIDYLAMINE]",≥ 90,≥ 90,≥ 90,–,–
"N#Cc1c(C(F)(F)F)cc(N(Cc2ccccn2)Cc2ccccn2)nc1Cl [Compound No. 24, N,N-bis(2-pyridylmethyl)-6-chloro-5-cyano-4-(trifluoromethyl)-2-pyridylamine]",–,–,–,≥ 90,≥ 90
"FC(F)(F)c1cc(N(Cc2ccccn2)Cc2ccccn2)nc(Br)c1Cl [Compound No. 92, N,N-BIS(2-PYRIDYLMETHYL)-6-BROMO-5-CHLORO-4-(TRIFLUOROMETHYL)-2-PYRIDYLAMINE]",≥ 90,≥ 90,≥ 90,–,–
"FC(F)(F)c1cc(Br)nc(N(Cc2ccccn2)Cc2ccccn2)c1 [Compound No. 90, N,N-BIS(2-PYRIDYLMETHYL)-6-BROMO-4-(TRIFLUOROMETHYL)-2-PYRIDYLAMINE]",≥ 90,–,≥ 90,–,–
"O=[N+]([O-])c1cnc(N(Cc2ccccn2)Cc2ccccn2)cc1C(F)(F)F [Compound No. 9, N,N-BIS(2-PYRIDYLMETHYL)-5-NITRO-4-(TRIFLUOROMETHYL)-2-PYRIDYLAMINE]",–,–,–,≥ 90,≥ 90
"FC(F)(F)c1cc(N(Cc2ccccn2)Cc2ccccn2)nc(C(F)(F)F)c1Cl [Compound No. 103, N,N-BIS(2-PYRIDYLMETHYL)-5-CHLORO-4,6-BIS(TRIFLUOROMETHYL)-2-PYRIDYLAMINE]",≥ 90,≥ 90,≥ 90,–,–
"CC(c1cccnc1)N(Cc1ccccn1)c1cc(C(F)(F)F)c(Cl)c(Cl)n1 (stereo not drawn) [Compound No. 97, N-(1-(3-PYRIDYL)ETHYL)-N-(2-PYRIDYLMETHYL)-5,6-DICHLORO-4-TRIFLUOROMETHYL-2-PYRIDYLAMINE]",≥ 90,≥ 90,≥ 90,–,–
"FC(F)(F)c1cc(Cl)nc(NCc2ccccn2)c1 [Compound No. 128, N-(2-PYRIDYLMETHYL)-6-CHLORO-4-(TRIFLUOROMETHYL)-2-PYRIDYLAMINE]",≥ 90,–,–,–,–
"C#Cc1nc(N(Cc2ccccn2)Cc2ccccn2)cc(C(F)(F)F)c1Cl [Compound No. 94, N,N-BIS(2-PYRIDYLMETHYL)-5-CHLORO-6-ETHYNYL-4-(TRIFLUOROMETHYL)-2-PYRIDYLAMINE]",≥ 90,–,≥ 90,–,–
"C=CCN(Cc1ccccn1)c1cc(C(F)(F)F)c(Cl)c(Cl)n1 [Compound No. 55, N-ALLYL-N-(2-PYRIDYLMETHYL)-5,6-DICHLORO-4-(TRIFLUOROMETHYL)-2-PYRIDYLAMINE]",≥ 90,≥ 90,≥ 90,–,–
